Assay results reported in ChEMBL document CHEMBL1201862, “PubChem BioAssay data set” (2004).
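The compound was tested at five concentrations on cells cultured in 96-well plates, with a 48-hour exposure period. The concentration for 50% growth inhibition is given as GI50.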 The source made the active and inactive calls. Cut-off read from the data, not from the text of the source: active = GI50 up to about 1.1 µM and inactive = higher.

Columns and labels:
Test in all cases: NCI tumour cell line growth inhibition, 48 h
MDA-MB-231 = tested on: MDA-MB-231
SN12C = tested on: SN12C
CCRF-CEM = tested on: CCRF-CEM
NCI/ADR-RES = tested on: NCI/ADR-RES
SK-OV-3 = tested on: SK-OV-3
RXF 393 = tested on: RXF 393
TK-10 = tested on: TK-10
NCI-H522 = tested on: NCI-H522
HOP-62 = tested on: HOP-62
MDA-MB-435 = tested on: MDA-MB-435
OVCAR-8 = tested on: OVCAR-8
NCI-H460 = tested on: NCI-H460
UACC-257 = tested on: UACC-257
HL-60 = tested on: HL-60
A549 = tested on: A549
ACHN = tested on: ACHN
NCI-H226 = tested on: NCI-H226
K562 = tested on: K562
SF-539 = tested on: SF-539
CAKI-1 = tested on: CAKI-1
SNB-19 = tested on: SNB-19
MCF7 = tested on: MCF7
HOP-92 = tested on: HOP-92
U-251 = tested on: U-251
OVCAR-3 = tested on: OVCAR-3
M14 = tested on: M14
SF-268 = tested on: SF-268
Malme-3M = tested on: Malme-3M
RPMI-8226 = tested on: RPMI-8226
OVCAR-5 = tested on: OVCAR-5
BT-549 = tested on: BT-549
SNB-75 = tested on: SNB-75
SW-620 = tested on: SW-620
PC-3 = tested on: PC-3
SK-MEL-2 = tested on: SK-MEL-2
MDA-N = tested on: MDA-N
A498 = tested on: A498
NCI-H23 = tested on: NCI-H23
HCT-15 = tested on: HCT-15
SK-MEL-28 = tested on: SK-MEL-28
T47D = tested on: T47D
EKVX = tested on: EKVX
OVCAR-4 = tested on: OVCAR-4
SK-MEL-5 = tested on: SK-MEL-5
Hs-578T = tested on: Hs-578T
HCC 2998 = tested on: HCC 2998
DU-145 = tested on: DU-145
SR = tested on: SR
UACC-62 = tested on: UACC-62
COLO 205 = tested on: COLO 205
MOLT-4 = tested on: MOLT-4
UO-31 = tested on: UO-31
IGROV-1 = tested on: IGROV-1
HCT-116 = tested on: HCT-116
KM12 = tested on: KM12
HT-29 = tested on: HT-29
786-0 = tested on: 786-0
SF-295 = tested on: SF-295
LOX IMVI = tested on: LOX IMVI

Compound: CCCCCC/C=C\CCCCCCCCCc1cccc(O)c1C(=O)O [GINKGOLIC ACID 17:1]
- GI50 (MDA-MB-231): > 100 µM (inactive)
- GI50 (SN12C): > 100 µM (inactive)
- GI50 (CCRF-CEM): 99.1 µM (inactive)
- GI50 (NCI/ADR-RES): > 100 µM (inactive)
- GI50 (SK-OV-3): > 100 µM (inactive)
- GI50 (RXF 393): > 100 µM (inactive)
- GI50 (TK-10): 65 µM (inactive)
- GI50 (NCI-H522): > 100 µM (inactive)
- GI50 (HOP-62): > 100 µM (inactive)
- GI50 (MDA-MB-435): > 100 µM (inactive)
- GI50 (OVCAR-8): > 100 µM (inactive)
- GI50 (NCI-H460): > 100 µM (inactive)
- GI50 (UACC-257): > 100 µM (inactive)
- GI50 (HL-60): > 100 µM (inactive)
- GI50 (A549): > 100 µM (inactive)
- GI50 (ACHN): > 100 µM (inactive)
- GI50 (NCI-H226): 60.7 µM (inactive)
- GI50 (K562): 65.9 µM (inactive)
- GI50 (SF-539): > 100 µM (inactive)
- GI50 (CAKI-1): > 100 µM (inactive)
- GI50 (SNB-19): 61.1 µM (inactive)
- GI50 (MCF7): > 100 µM (inactive)
- GI50 (HOP-92): > 100 µM (inactive)
- GI50 (U-251): > 100 µM (inactive)
- GI50 (OVCAR-3): > 100 µM (inactive)
- GI50 (M14): > 100 µM (inactive)
- GI50 (SF-268): > 100 µM (inactive)
- GI50 (Malme-3M): > 100 µM (inactive)
- GI50 (RPMI-8226): 84.3 µM (inactive)
- GI50 (OVCAR-5): > 100 µM (inactive)
- GI50 (BT-549): > 100 µM (inactive)
- GI50 (SNB-75): > 100 µM (inactive)
- GI50 (SW-620): > 100 µM (inactive)
- GI50 (PC-3): 51.9 µM (inactive)
- GI50 (SK-MEL-2): 31.7 µM (inactive)
- GI50 (MDA-N): > 100 µM (inactive)
- GI50 (A498): > 100 µM (inactive)
- GI50 (NCI-H23): > 100 µM (inactive)
- GI50 (HCT-15): 32.6 µM
- GI50 (SK-MEL-28): > 100 µM (inactive)
- GI50 (T47D): > 100 µM (inactive)
- GI50 (EKVX): > 100 µM (inactive)
- GI50 (OVCAR-4): > 100 µM (inactive)
- GI50 (SK-MEL-5): 35.5 µM (inactive)
- GI50 (Hs-578T): > 100 µM (inactive)
- GI50 (HCC 2998): > 100 µM (inactive)
- GI50 (DU-145): > 100 µM (inactive)
- GI50 (SR): 45.4 µM (inactive)
- GI50 (UACC-62): 34 µM (inactive)
- GI50 (COLO 205): > 100 µM (inactive)
- GI50 (MOLT-4): 83.8 µM (inactive)
- GI50 (UO-31): > 100 µM (inactive)
- GI50 (IGROV-1): > 100 µM (inactive)
- GI50 (HCT-116): > 100 µM (inactive)
- GI50 (KM12): > 100 µM (inactive)
- GI50 (HT-29): > 100 µM (inactive)
- GI50 (786-0): > 100 µM (inactive)
- GI50 (SF-295): 59.3 µM (inactive)

Compound: NC(CSc1nc2ccccn2c1[N+](=O)[O-])C(=O)O (centres undefined)
- GI50 (MDA-MB-231): > 100 µM (inactive)
- GI50 (SN12C): > 100 µM (inactive)
- GI50 (NCI/ADR-RES): > 100 µM (inactive)
- GI50 (SK-OV-3): > 100 µM (inactive)
- GI50 (RXF 393): > 100 µM (inactive)
- GI50 (TK-10): > 100 µM (inactive)
- GI50 (NCI-H522): > 100 µM (inactive)
- GI50 (HOP-62): > 100 µM (inactive)
- GI50 (MDA-MB-435): > 100 µM (inactive)
- GI50 (OVCAR-8): > 100 µM (inactive)
- GI50 (NCI-H460): > 100 µM (inactive)
- GI50 (UACC-257): > 100 µM (inactive)
- GI50 (A549): > 100 µM (inactive)
- GI50 (ACHN): > 100 µM (inactive)
- GI50 (NCI-H226): > 100 µM (inactive)
- GI50 (K562): > 100 µM (inactive)
- GI50 (SF-539): > 100 µM (inactive)
- GI50 (CAKI-1): > 100 µM (inactive)
- GI50 (SNB-19): > 100 µM (inactive)
- GI50 (MCF7): > 100 µM (inactive)
- GI50 (HOP-92): > 100 µM (inactive)
- GI50 (U-251): > 100 µM (inactive)
- GI50 (OVCAR-3): > 100 µM (inactive)
- GI50 (M14): > 100 µM (inactive)
- GI50 (SF-268): > 100 µM (inactive)
- GI50 (Malme-3M): > 100 µM (inactive)
- GI50 (RPMI-8226): > 100 µM (inactive)
- GI50 (OVCAR-5): > 100 µM (inactive)
- GI50 (BT-549): > 100 µM (inactive)
- GI50 (SNB-75): > 100 µM (inactive)
- GI50 (SW-620): > 100 µM (inactive)
- GI50 (PC-3): > 100 µM (inactive)
- GI50 (SK-MEL-2): > 100 µM (inactive)
- GI50 (MDA-N): > 100 µM (inactive)
- GI50 (A498): > 100 µM (inactive)
- GI50 (NCI-H23): > 100 µM (inactive)
- GI50 (HCT-15): > 100 µM
- GI50 (SK-MEL-28): > 100 µM (inactive)
- GI50 (T47D): > 100 µM (inactive)
- GI50 (EKVX): > 100 µM (inactive)
- GI50 (OVCAR-4): > 100 µM (inactive)
- GI50 (SK-MEL-5): > 100 µM (inactive)
- GI50 (Hs-578T): > 100 µM (inactive)
- GI50 (HCC 2998): > 100 µM (inactive)
- GI50 (DU-145): > 100 µM (inactive)
- GI50 (SR): 61.1 µM (inactive)
- GI50 (UACC-62): > 100 µM (inactive)
- GI50 (COLO 205): > 100 µM (inactive)
- GI50 (UO-31): 2.49 µM (inactive)
- GI50 (IGROV-1): > 100 µM (inactive)
- GI50 (HCT-116): > 100 µM (inactive)
- GI50 (KM12): > 100 µM (inactive)
- GI50 (HT-29): > 100 µM (inactive)
- GI50 (786-0): > 100 µM (inactive)
- GI50 (SF-295): > 100 µM (inactive)

Compound: CC(C(=O)O)C1Nc2ccccc2NC1=O (centres undefined)
- GI50 (MDA-MB-231): > 100 µM (inactive)
- GI50 (CCRF-CEM): 14.2 µM (inactive)
- GI50 (NCI/ADR-RES): > 100 µM (inactive)
- GI50 (SK-OV-3): > 100 µM (inactive)
- GI50 (RXF 393): > 100 µM (inactive)
- GI50 (LOX IMVI): > 100 µM (inactive)
- GI50 (TK-10): > 100 µM (inactive)
- GI50 (MDA-MB-435): > 100 µM (inactive)
- GI50 (OVCAR-8): > 100 µM (inactive)
- GI50 (NCI-H460): > 100 µM (inactive)
- GI50 (UACC-257): > 100 µM (inactive)
- GI50 (HL-60): 23.3 µM (inactive)
- GI50 (A549): > 100 µM (inactive)
- GI50 (ACHN): > 100 µM (inactive)
- GI50 (NCI-H226): > 100 µM (inactive)
- GI50 (K562): > 100 µM (inactive)
- GI50 (SF-539): > 100 µM (inactive)
- GI50 (CAKI-1): > 100 µM (inactive)
- GI50 (SNB-19): > 100 µM (inactive)
- GI50 (MCF7): > 100 µM (inactive)
- GI50 (HOP-92): > 100 µM (inactive)
- GI50 (U-251): > 100 µM (inactive)
- GI50 (OVCAR-3): > 100 µM (inactive)
- GI50 (M14): > 100 µM (inactive)
- GI50 (SF-268): > 100 µM (inactive)
- GI50 (Malme-3M): > 100 µM (inactive)
- GI50 (RPMI-8226): 37.4 µM (inactive)
- GI50 (OVCAR-5): > 100 µM (inactive)
- GI50 (BT-549): > 100 µM (inactive)
- GI50 (SNB-75): > 100 µM (inactive)
- GI50 (SW-620): > 100 µM (inactive)
- GI50 (PC-3): > 100 µM (inactive)
- GI50 (SK-MEL-2): > 100 µM (inactive)
- GI50 (MDA-N): > 100 µM (inactive)
- GI50 (A498): > 100 µM (inactive)
- GI50 (NCI-H23): > 100 µM (inactive)
- GI50 (HCT-15): > 100 µM
- GI50 (SK-MEL-28): > 100 µM (inactive)
- GI50 (T47D): > 100 µM (inactive)
- GI50 (EKVX): > 100 µM (inactive)
- GI50 (OVCAR-4): > 100 µM (inactive)
- GI50 (SK-MEL-5): > 100 µM (inactive)
- GI50 (Hs-578T): > 100 µM (inactive)
- GI50 (HCC 2998): > 100 µM (inactive)
- GI50 (DU-145): > 100 µM (inactive)
- GI50 (SR): 65.6 µM (inactive)
- GI50 (UACC-62): > 100 µM (inactive)
- GI50 (COLO 205): > 100 µM (inactive)
- GI50 (MOLT-4): 25.2 µM (inactive)
- GI50 (UO-31): > 100 µM (inactive)
- GI50 (IGROV-1): > 100 µM (inactive)
- GI50 (HCT-116): > 100 µM (inactive)
- GI50 (KM12): > 100 µM (inactive)
- GI50 (HT-29): > 100 µM (inactive)
- GI50 (786-0): > 100 µM (inactive)
- GI50 (SF-295): > 100 µM (inactive)
